Values quoted from earlier work, collected in patent US7041008B2, “Golf ball with sulfur cured inner component” (priority 1993, dated 2006).

Row | Compound | Acute oral LD50
1 | CC(C)(C)OOC(=O)c1ccccc1 [t-butyl perbenzoate] | >3,600 mg/kg
2 | O=C(OOC(=O)c1ccccc1)c1ccccc1 [benzoyl peroxide] | >5,000 mg/kg
3 | 2,2′-bis(t-butylperoxy)-di-iso-propylbenzene | >23,000 mg/kg
4 | CC1CC(C)(C)CC(OOC(C)(C)C)(OOC(C)(C)C)C1 (stereo not drawn) [1,1-bis(t-butylperoxy)-3,3,5-trimethyl cyclohexane] | >13,000 mg/kg
5 | CC(C)(C)OOC(C)(C)CCC(C)(C)OOC(C)(C)C [2,5-dimethyl-2,5-di(t-butylperoxy) hexane] | >32,000 mg/kg
6 | O=C1CCCCCN1SSN1CCCCCC1=O [N,N′-caprolactum disulfide] | 3,620 mg/kg
7 | CC(C)(OOC(C)(C)c1ccccc1)c1ccccc1 [dicumyl peroxide] | 4,100 mg/kg
8 | CCCCOC(=O)CCC(C)(OOC(C)(C)C)OOC(C)(C)C [n-butyl 4,4-bis(t-butyl-peroxy) valerate] | 5,000 mg/kg
9 | C1CN(SSN2CCOCC2)CCO1 [4,4″-dithiodimorpholine] | 5,600 mg/kg
